# Results published in patent US7612064B2, “Sulfopyrroles” (Takeda Pharmaceutical Company Limited, priority 2003, dated 2009).
# How the values were obtained:
# [1] = Hoechst 33342 nuclear staining; format: cell-based; conditions: for Hoechst 33342 nuclear staining score, H460: H460 cells; for Hoechst 33342 nuclear staining score, HeLa: HeLa cells; for Hoechst 33342 nuclear staining score, Jily: Jily cells; for Hoechst 33342 nuclear staining score, Jurkat: Jurkat cells; for Hoechst 33342 nuclear staining score, MRC5: MRC5 cells;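 for all read-outs here: apoptotic nuclei scored 0 none 1 weak under 50% of cells 2 strong over 50% of cells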
# Summary of the method: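 After a further 30 min incubation, plates were inspected on a standard inverted fluorescence microscope. The fraction of apoptotic nuclei and other apoptosis-specific morphology were scored as 0 for no activity, 1 for weak activity in less than 50% of the cells, and 2 for strong activity in more than 50% of the cells.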
# Jurkat = test: MTS proliferation assay; format: cell-based, human; conditions: 72 h
# Summary of the method: (§1)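 Proliferation is assessed by MTS conversion, measured as 492 nm absorption. Cells are treated for three days (72 h) with four compound concentrations between 0.3 and 10 μM.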
# HeLa = test: MTS proliferation assay; format: cell-based, human; conditions: 72 h
# Summary of the method: as §1
# MRC5 = test: MTS proliferation assay; format: cell-based; conditions: MRC5, 72 h
# Summary of the method: as §1
# Jily = test: MTS proliferation assay; format: cell-based; conditions: 72 h
# Summary of the method: as §1
SMILES,"Hoechst 33342 nuclear staining score, H460 ([1]; conc 0.1)","Hoechst 33342 nuclear staining score, H460 ([1]; conc 0.3)","Hoechst 33342 nuclear staining score, H460 ([1]; conc 1)","Hoechst 33342 nuclear staining score, H460 ([1]; conc 3)","Hoechst 33342 nuclear staining score, HeLa ([1]; conc 0.1)","Hoechst 33342 nuclear staining score, HeLa ([1]; conc 0.3)","Hoechst 33342 nuclear staining score, HeLa ([1]; conc 1)","Hoechst 33342 nuclear staining score, HeLa ([1]; conc 3)","Hoechst 33342 nuclear staining score, Jily ([1]; conc 0.1)","Hoechst 33342 nuclear staining score, Jily ([1]; conc 0.3)","Hoechst 33342 nuclear staining score, Jily ([1]; conc 1)","Hoechst 33342 nuclear staining score, Jily ([1]; conc 3)","Hoechst 33342 nuclear staining score, Jurkat ([1]; conc 0.1)","Hoechst 33342 nuclear staining score, Jurkat ([1]; conc 0.3)","Hoechst 33342 nuclear staining score, Jurkat ([1]; conc 1)","Hoechst 33342 nuclear staining score, Jurkat ([1]; conc 3)","Hoechst 33342 nuclear staining score, MRC5 ([1]; conc 0.1)","Hoechst 33342 nuclear staining score, MRC5 ([1]; conc 0.3)","Hoechst 33342 nuclear staining score, MRC5 ([1]; conc 1)","Hoechst 33342 nuclear staining score, MRC5 ([1]; conc 3)",further results
COc1ccc(S(=O)(=O)n2cc(-c3cncc(C(N)=O)c3)cc2-c2ccc(OC)cc2OC)cc1 [Example 106],0,0,1 (weak activity comprising less than 50% of the cells),2 (strong activity comprising more than 50% of the cells),0,0,1 (weak activity comprising less than 50% of the cells),2 (strong activity comprising more than 50% of the cells),0,0,1 (weak activity comprising less than 50% of the cells),2 (strong activity comprising more than 50% of the cells),0,0,2 (strong activity comprising more than 50% of the cells),2 (strong activity comprising more than 50% of the cells),0,0,0,1 (weak activity comprising less than 50% of the cells),"Hoechst 33342 nuclear staining score, PBLs ([1]; conc 0.1): 0; Hoechst 33342 nuclear staining score, PBLs ([1]; conc 0.3): 0; Hoechst 33342 nuclear staining score, PBLs ([1]; conc 1): 0; Hoechst 33342 nuclear staining score, PBLs ([1]; conc 3): 0; IC50 (Jurkat): > 1000 nM; IC50 (HeLa): > 1000 nM; IC50 (MRC5): > 1000 nM; IC50 (Jily): > 1000 nM"
COc1ccc(S(=O)(=O)n2cc(CNc3ccc(N4CCOCC4)cc3)cc2-c2cccc(OC)c2)cc1 [Example 98],0,0,0,0,0,0,0,0,0,0,0,0,0,0,0,1 (weak activity comprising less than 50% of the cells),0,0,0,0,"Hoechst 33342 nuclear staining score, PBLs ([1]; conc 0.1): 0; Hoechst 33342 nuclear staining score, PBLs ([1]; conc 0.3): 0; Hoechst 33342 nuclear staining score, PBLs ([1]; conc 1): 0; Hoechst 33342 nuclear staining score, PBLs ([1]; conc 3): 0; IC50 (Jurkat): > 1000 nM; IC50 (HeLa): > 1000 nM; IC50 (MRC5): > 1000 nM; IC50 (Jily): > 1000 nM"
COc1cc(-c2cc(-c3cccnc3)cn2S(=O)(=O)c2c(Cl)cccc2Cl)cc(OC)c1OC [Example 85],0,0,0,0,0,0,0,0,0,0,0,0,0,0,0,0,0,0,0,0,"Hoechst 33342 nuclear staining score, PBLs ([1]; conc 0.1): 0; Hoechst 33342 nuclear staining score, PBLs ([1]; conc 0.3): 0; Hoechst 33342 nuclear staining score, PBLs ([1]; conc 1): 0; Hoechst 33342 nuclear staining score, PBLs ([1]; conc 3): 0; IC50 (Jurkat): > 1000 nM; IC50 (HeLa): > 1000 nM; IC50 (MRC5): > 1000 nM; IC50 (Jily): > 1000 nM"
COc1cc(-c2cc(-c3cncc(CNC(C)=O)c3)cn2S(=O)(=O)c2ccc(C)cc2)cc(OC)c1OC [Example 60],0,0,2 (strong activity comprising more than 50% of the cells),2 (strong activity comprising more than 50% of the cells),0,0,1 (weak activity comprising less than 50% of the cells),2 (strong activity comprising more than 50% of the cells),0,0,2 (strong activity comprising more than 50% of the cells),2 (strong activity comprising more than 50% of the cells),0,2 (strong activity comprising more than 50% of the cells),2 (strong activity comprising more than 50% of the cells),2 (strong activity comprising more than 50% of the cells),0,0,0,2 (strong activity comprising more than 50% of the cells),"Hoechst 33342 nuclear staining score, PBLs ([1]; conc 0.1): 0; Hoechst 33342 nuclear staining score, PBLs ([1]; conc 0.3): 0; Hoechst 33342 nuclear staining score, PBLs ([1]; conc 1): 0; Hoechst 33342 nuclear staining score, PBLs ([1]; conc 3): 0; IC50 (Jurkat): < 1000 nM; IC50 (HeLa): < 1000 nM; IC50 (MRC5): < 1000 nM; IC50 (Jily): < 1000 nM"
COc1cc(-c2cc(-c3cccnc3)cn2S(=O)(=O)c2cn(C)cn2)cc(OC)c1OC [Example 87],0,0,0,0,0,0,0,0,0,0,0,0,0,0,0,0,0,0,0,0,"Hoechst 33342 nuclear staining score, PBLs ([1]; conc 0.1): 0; Hoechst 33342 nuclear staining score, PBLs ([1]; conc 0.3): 0; Hoechst 33342 nuclear staining score, PBLs ([1]; conc 1): 0; Hoechst 33342 nuclear staining score, PBLs ([1]; conc 3): 0; IC50 (Jurkat): > 1000 nM; IC50 (HeLa): > 1000 nM; IC50 (MRC5): > 1000 nM; IC50 (Jily): > 1000 nM"
COc1ccc(S(=O)(=O)n2cc(-c3ccc(N)nc3)cc2-c2ccccc2OC)cc1 [Example 103],0,0,0,2 (strong activity comprising more than 50% of the cells),0,0,0,2 (strong activity comprising more than 50% of the cells),0,0,2 (strong activity comprising more than 50% of the cells),2 (strong activity comprising more than 50% of the cells),0,0,2 (strong activity comprising more than 50% of the cells),2 (strong activity comprising more than 50% of the cells),0,0,0,1 (weak activity comprising less than 50% of the cells),"Hoechst 33342 nuclear staining score, PBLs ([1]; conc 0.1): 0; Hoechst 33342 nuclear staining score, PBLs ([1]; conc 0.3): 0; Hoechst 33342 nuclear staining score, PBLs ([1]; conc 1): 0; Hoechst 33342 nuclear staining score, PBLs ([1]; conc 3): 0; IC50 (Jurkat): < 1000 nM; IC50 (HeLa): > 1000 nM; IC50 (MRC5): > 1000 nM; IC50 (Jily): < 1000 nM"
